In paper PMC9054915 (Cancer Chemotherapy and Pharmacology, 2022):
Where two headings read alike, the source gives them in different places.

Legend:
in vitro = settings: dog, MDCK
Text: (§1) The physiochemical and ADME parameters used for the development of the initial PBPK model are summarized Table S1. […] The volume of distribution at steady state (Vss) was obtained from the clinical absolute bioavailability study (ClinicalTrials.gov Identifier: NCT02390492). A tissue to plasma partition coefficient (Kp) scalar was applied to match the predicted Vss (predicted with in Simcyp using Method 3, Rodgers et al. + ion membrane permeability) to the observed value. The IV clearance determined in the clinical absolute bioavailability study was used (ClinicalTrials.gov Identifier: NCT02390492). […] The CYP3A4 inhibition parameters for competitive inhibition and TDI determined using in vitro assays (Data on file) were incorporated into the model.

[1] = cited from earlier work
[2] = cited from earlier work; remark: listed apart in the source
CYP3A4 [3] = target: T1, CYP3A4 (Homo sapiens, UniProt P08684); test: clinical; settings: female, in vivo, 125 mg
T1 sequence (P08684 whole entry): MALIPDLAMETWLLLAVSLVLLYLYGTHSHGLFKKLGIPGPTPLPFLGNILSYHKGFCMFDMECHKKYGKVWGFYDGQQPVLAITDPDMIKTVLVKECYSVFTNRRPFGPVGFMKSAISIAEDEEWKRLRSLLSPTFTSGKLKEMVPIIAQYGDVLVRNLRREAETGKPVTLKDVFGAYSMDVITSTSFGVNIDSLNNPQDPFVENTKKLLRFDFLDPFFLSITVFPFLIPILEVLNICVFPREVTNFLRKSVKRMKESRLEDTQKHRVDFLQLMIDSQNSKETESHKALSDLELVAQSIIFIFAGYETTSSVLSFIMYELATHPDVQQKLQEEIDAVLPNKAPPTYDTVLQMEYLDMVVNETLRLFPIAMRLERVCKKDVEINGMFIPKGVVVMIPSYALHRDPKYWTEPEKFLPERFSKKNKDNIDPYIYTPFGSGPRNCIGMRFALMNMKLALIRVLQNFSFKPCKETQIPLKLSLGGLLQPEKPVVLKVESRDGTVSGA

[4] = palbociclib PBPK model input; cited from earlier work
CYP3A4 [5] = settings: cited from earlier work
CYP3A4 [6] = target: T1, CYP3A4; settings: cited from earlier work; for AUC ratio Observation: midazolam AUC0–∞ with/without ipatasertib 600 mg QD; for AUC ratio Observation / Cmax ratio Observation: geometric mean ratio (90% CI); for Cmax ratio Observation: midazolam Cmax with/without ipatasertib 600 mg QD
CYP3A4 [7] = target: T1, CYP3A4; test: PBPK simulation: midazolam with ipatasertib 600 mg QD
Description: (§2) The age range of 37–76 and the proportion of females of 0.69 were used in the simulation.
Therefore, sensitivity analyses of inhibitory parameters, where only one parameter (Ki or Kinact) varied at a time, were performed for all three models described above.

CYP3A4 [8] = target: T1, CYP3A4; settings: ipatasertib 100 mg single oral dose with and without itraconazole 200 mg QD, cited from earlier work
clinical = settings: human, in vivo, po, 200 mg
CYP3A4 [9] = target: T1, CYP3A4; test: Clinical study: ipatasertib 300 mg QD with palbociclib (NCT04060862); settings: in vivo
P-glycoprotein (P-gp) = P-glycoprotein (P-gp) (Homo sapiens, UniProt P08183); test: In vitro P-glycoprotein substrate assessment; type: in vitro ADME
Chain of P-glycoprotein (P-gp) (P08183 whole entry): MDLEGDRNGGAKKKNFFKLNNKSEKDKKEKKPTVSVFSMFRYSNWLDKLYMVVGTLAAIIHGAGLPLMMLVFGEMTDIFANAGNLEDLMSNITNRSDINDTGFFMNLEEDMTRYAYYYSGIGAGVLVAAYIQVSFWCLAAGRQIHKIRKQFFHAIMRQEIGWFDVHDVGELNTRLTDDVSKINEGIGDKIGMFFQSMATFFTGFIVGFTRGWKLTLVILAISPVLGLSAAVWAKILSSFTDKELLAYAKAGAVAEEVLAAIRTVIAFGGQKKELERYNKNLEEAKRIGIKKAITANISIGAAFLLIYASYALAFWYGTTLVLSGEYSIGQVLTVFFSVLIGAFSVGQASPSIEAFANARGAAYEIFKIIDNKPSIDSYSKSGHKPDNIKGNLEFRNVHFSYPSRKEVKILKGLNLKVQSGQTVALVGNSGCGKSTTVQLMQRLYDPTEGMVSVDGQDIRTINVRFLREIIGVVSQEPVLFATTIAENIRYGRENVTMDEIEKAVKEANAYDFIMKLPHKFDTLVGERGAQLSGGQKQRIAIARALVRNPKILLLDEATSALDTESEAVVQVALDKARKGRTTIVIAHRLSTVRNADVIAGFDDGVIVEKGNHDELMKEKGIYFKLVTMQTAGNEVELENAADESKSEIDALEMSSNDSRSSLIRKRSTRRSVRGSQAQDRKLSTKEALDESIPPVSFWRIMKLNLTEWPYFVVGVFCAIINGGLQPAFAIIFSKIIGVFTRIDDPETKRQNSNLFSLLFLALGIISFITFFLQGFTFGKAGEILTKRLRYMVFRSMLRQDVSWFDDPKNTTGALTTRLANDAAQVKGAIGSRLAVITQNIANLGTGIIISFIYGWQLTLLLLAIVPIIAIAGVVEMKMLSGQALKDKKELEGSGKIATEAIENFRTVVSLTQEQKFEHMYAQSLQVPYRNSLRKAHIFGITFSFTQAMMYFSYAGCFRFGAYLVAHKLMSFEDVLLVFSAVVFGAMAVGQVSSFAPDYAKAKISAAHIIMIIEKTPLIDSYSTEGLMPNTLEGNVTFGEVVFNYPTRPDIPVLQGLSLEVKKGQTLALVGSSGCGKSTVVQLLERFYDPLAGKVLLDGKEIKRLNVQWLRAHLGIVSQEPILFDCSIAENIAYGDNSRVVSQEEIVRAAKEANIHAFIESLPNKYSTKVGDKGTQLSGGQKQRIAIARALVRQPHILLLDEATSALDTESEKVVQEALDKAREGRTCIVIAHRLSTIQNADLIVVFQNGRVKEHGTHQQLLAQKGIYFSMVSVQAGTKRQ
Text: (§3) This is due to the difficulty in differentiating between the inhibition and induction from the clinical data and that the PBPK model parameters were optimized to represent a net inhibition effect.

CYP3A4 [10] = test: In vitro CYP3A4 induction; type: in vitro ADME
Text: as §3

[11] = Human mass balance and absolute bioavailability study (NCT02390492)
[12] = Physicochemical parameters (LogP, pKa, compound type; in-house data)
Text: as §1

[13] = tested on: MDCK (Madin-Darby Canine Kidney); test: MDCK permeability
Text: as §1

[14] = cited from earlier work; for Observed AUC0-∞ / Observed AUC0-24: geometric mean (CV%); for Observed AUC0-24: Steady state
[15] = male, human, in vivo, iv
[16] = Blood-to-plasma partition ratio and fraction unbound in plasma; type: in vitro ADME; settings: mean at concentration from 0.1 to 40 µM, data on file, read-out: fu,plasma
CYP3A4 [17] = target: T1, CYP3A4
Text: as §1, §2

CYP3A4 [18] = target: T1, CYP3A4; settings: cited from earlier work
[19] = Biliary excretion of unchanged ipatasertib; type: in vivo; settings: rats and monkeys dosed with 10 mg/kg and 5 mg/kg
Text: as §3

[20] = cited from earlier work; remark: listed apart in the source
[21] = Solubility of ipatasertib; type: physicochemical; settings: across the pH range of 1.1–7.0
Text: as §1

Caco-2 = tested on: Caco-2; parameters: method as in earlier work; settings: enzalutamide PBPK model input; cited from earlier work
[22] = enzalutamide 160 mg QD with ipatasertib, clinical observation, geometric mean (CV%)

COCCc1ccc(OCC(O)CNC(C)C)cc1 (stereo not drawn) [metoprolol] showed a Papp (in vitro) of 24.8 ×10⁻⁶ cm/s.

In the case of CC(=O)c1c(C)c2cnc(Nc3ccc(N4CCNCC4)cn3)nc2n(C2CCCC2)c1=O [Palbociclib], the CLR ([1]; palbociclib PBPK model input) is given as 6.6 L/h, the Fa ([1]; palbociclib PBPK model input) is given as 0.85 and the Ka ([1]; palbociclib PBPK model input) is given as 0.12 h⁻¹. For the same molecule, the Vss ([1]; palbociclib PBPK model input) was 14.558 L/kg, the “fu, plasma” value ([2]; palbociclib PBPK model input) was 0.147 and the AUC (CYP3A4 [3]) was 2560 ng·h/mL. For the same molecule, the Cmax (CYP3A4 [3]) was 123 ng/mL, the logP [4] was 0.99 and the “Kapp (CYP3A4 time-dependent inhibition)” value (CYP3A4 [5]; palbociclib PBPK model input) was 10 µM.

CN/C(=N/CCSCc1nc[nH]c1C)NC#N [cimetidine] showed a Papp (in vitro) of 1 ×10⁻⁶ cm/s.

For Cc1ncc2n1-c1ccc(Cl)cc1C(c1ccccc1F)=NC2 [Midazolam], the “AUC ratio Observation” value (CYP3A4 [6]) is listed as 2.22 (1.57–3.12), the “AUC ratio Observation” value (CYP3A4 [6]; listed as midazolam) is listed as 2.22 and the “AUC Observation” value (CYP3A4 [6]; midazolam AUC0–∞, midazolam 2 mg single oral dose with and without ipatasertib 600 mg QD, geometric mean (CV%)) is listed as 39.3 (58.4%) ng* h/ml. The “Cmax ratio Observation” value (CYP3A4 [6]) was 1.29 (0.97–1.71), the “Cmax ratio Observation” value (CYP3A4 [6]; listed as midazolam) was 1.29 and the “Cmax Observation” value (CYP3A4 [6]; midazolam Cmax, midazolam 2 mg single oral dose with and without ipatasertib 600 mg QD, geometric mean (CV%)) was 15.0 (51.6%) ng/ml. The “Tmax Observation” value (CYP3A4 [6]; midazolam Tmax, midazolam 2 mg single oral dose with and without ipatasertib 600 mg QD, median (range)) was 0.50 (0.50–1.00) h, the “AUC P/O” value (CYP3A4 [7]; predicted/observed midazolam AUC0–∞, midazolam 2 mg with and without ipatasertib 600 mg QD) was 0.59 and the “AUC ratio P/O” value (CYP3A4 [7]; predicted/observed midazolam AUC ratio, ipatasertib 600 mg QD) was 1.00. For the same molecule, the “Cmax ratio P/O” value (CYP3A4 [7]; predicted/observed midazolam Cmax ratio, ipatasertib 600 mg QD) was 1.33 and the Papp (in vitro) was 18.8 ×10⁻⁶ cm/s.

For CC(C)NC[C@@H](C(=O)N1CCN(c2ncnc3c2[C@H](C)C[C@H]3O)CC1)c1ccc(Cl)cc1 [Ipatasertib], the “AUC Observation” value (CYP3A4 [8]; ipatasertib AUC0–∞, geometric mean (CV%)) is listed as 327 (26.4%) ng* h/ml, the “Cmax Observation” value (CYP3A4 [8]; ipatasertib Cmax, geometric mean (CV%)) is listed as 44.9 (35.9%) ng/ml and the “Tmax Observation” value (CYP3A4 [8]; ipatasertib Tmax, median (range)) is listed as 1.07 (0.50–3.03) h. It also gave a CL renal (clinical) of 322 mL/min, an AUC (CYP3A4 [9]) of 2510 ng·h/mL and a Cmax (CYP3A4 [9]) of 314 ng/mL. The Tmax (CYP3A4 [9]) was 1.5 h, the P-gp substrate status (P-glycoprotein (P-gp)) was “substrate of P-glycoprotein (P-gp)” and the “CYP3A4 induction in vitro” value (CYP3A4 [10]) was “weak CYP3A4 inducer in vitro”. The Vd ([11]; human, in vivo, intravenous, 0.08 mg) was 39.1 L/kg, the bioavailability ([11]; human, in vivo, oral, 200 mg) was 34% and the “unchanged drug eliminated in urine” value ([11]; single 200 mg oral dose) was about 8%. For the same molecule, the Compound type [12] was “Diprotic base”, the logP [12] was 3 and the pKa ([12]; read-out: pKa1) was 9. The pKa ([12]; read-out: pKa2) was 4.9, the “permeability (in words)” value [13] was “moderate permeability” and the Papp (in vitro) was 3.55 ×10⁻⁶ cm/s. The “dose proportionality of exposure” value ([14]; 200 to 800 mg, single dose or multiple doses) was “approximately dose-proportional”, the “Observed AUC0-∞” value ([14]; Day 1, 25 mg oral (n=3)) was 34.0 (107%) ng*hr/ml and the “Observed AUC0-∞” value ([14]; Day 1, 50 mg oral (n=3)) was 84.6 (50.1%) ng*hr/ml. For the same molecule, the “Observed AUC0-∞” value ([14]; Day 1, 100 mg oral (n=3)) was 365 (21.5%) ng*hr/ml, the “Observed AUC0-∞” value ([14]; Day 1, 200 mg oral (n=3)) was 999 (21.2%) ng*hr/ml and the “Observed AUC0-∞” value ([14]; Day 1, 400 mg oral (n=3)) was 2230 (14.1%) ng*hr/ml. For the same molecule, the “Observed AUC0-∞” value ([14]; Day 1, 600 mg oral (n=7)) was 3460 (36.4%) ng*hr/ml, the “Observed AUC0-∞” value ([14]; Day 1, 800 mg oral (n=7)) was 4100 (68.6%) ng*hr/ml and the “Observed AUC0-24” value ([14]; 25 mg (n=3)) was 88.3 (77.8%) ng*hr/ml. For the same molecule, the “Observed AUC0-24” value ([14]; 50 mg (n=3)) was 171 (11%) ng*hr/ml, the “Observed AUC0-24” value ([14]; 200 mg (n=3)) was 1770 (14.6%) ng*hr/ml and the “Observed AUC0-24” value ([14]; 400 mg (n=3)) was 3210 (22.3%) ng*hr/ml. For the same molecule, the “Observed AUC0-24” value ([14]; 600 mg (n=7)) was 4450 (43.8%) ng*hr/ml, the “Observed AUC0-24” value ([14]; 800 mg (n=7)) was 6670 (66.1%) ng*hr/ml and the “dose proportionality of exposure” value ([14]; low doses of 25–50 mg) was “more than dose-proportional increase in exposures”. For the same molecule, the CLiv [15] was 100 L/h, the fraction unbound [16] was 0.63 and the CYP3A4 substrate/inhibitor status (CYP3A4 [17]) was “a substrate and a competitive and time-dependent inhibitor (TDI) of CYP3A4”. The “Kapp (CYP3A4 time-dependent inhibition)” value (CYP3A4 [17]) was 9.66 µM, the “observed decrease in ipatasertib Cmax” value (CYP3A4 [18]; in the presence of enzalutamide, patients with prostate cancer) was about 53% and the “AUC Observation” value (CYP3A4 [18]; ipatasertib AUC0–24 h, ipatasertib 400 mg QD with and without enzalutamide 160 mg QD, geometric mean (CV%)) was 2170 (53.8%) ng* h/ml. For the same molecule, the “Cmax Observation” value (CYP3A4 [18]; ipatasertib Cmax, ipatasertib 400 mg QD with and without enzalutamide 160 mg QD, patients with prostate cancer, geometric mean (CV%)) was 284 (66.5%) ng/ml, the “Tmax Observation” value (CYP3A4 [18]; ipatasertib Tmax, ipatasertib 400 mg QD with and without enzalutamide 160 mg QD, median (range)) was 1.85 (0.63–4.00) h and the “unchanged drug found in bile” value [19] was 2.9–5.8%. The “effect of food on exposures” value [20] was “Food does not affect exposures” and the solubility [21] was over 10000 µg/mL.

With CC(C)NCC(O)COc1cccc2ccccc12 (stereo not drawn) [propranolol] the Papp (in vitro) was 20.9 ×10⁻⁶ cm/s.

For CNC(=O)c1ccc(N2C(=S)N(c3ccc(C#N)c(C(F)(F)F)c3)C(=O)C2(C)C)cc1F [Enzalutamide], the CLpo ([1]; enzalutamide, in vivo clearance) is given as 0.54 L/h, the “fu, plasma” value ([2]; enzalutamide PBPK model input) is given as 0.024 and the Caco-2 permeability (Caco-2) is given as 31 10^-6 cm/s. The “Observed AUCss” value (CYP3A4 [18]; [22]) was 341 (25%) µg*hr/ml, the “Observed Cmax” value (CYP3A4 [18]; [22]) was 17 (22%) µg/ml and the “Ind max (CYP3A4 induction)” value (CYP3A4 [5]; enzalutamide PBPK model input) was 8. For the same molecule, the EC50 (CYP3A4 [5]; enzalutamide PBPK model input, read-out: Ind C50 (CYP3A4 induction)) was 2.5 µM and the Ki (CYP3A4 [5]; enzalutamide PBPK model input, read-out: Ki (CYP3A4 competitive inhibition)) was 42 µM.
